Experimental data published in ChEMBL document CHEMBL1130887, “Serine derived NK1 antagonists. 2: A pharmacophore model for arylsulfonamide binding” (Bioorg Med Chem Lett, 1998).

Target: Substance-P receptor (Homo sapiens, UniProt P25103)
Experiment: Displacement of [125I]-substance P from hNK1 receptor in chinese hamster ovarian (CHO) cells
Assay type: cell-based

Chain of Substance-P receptor (P25103 whole entry): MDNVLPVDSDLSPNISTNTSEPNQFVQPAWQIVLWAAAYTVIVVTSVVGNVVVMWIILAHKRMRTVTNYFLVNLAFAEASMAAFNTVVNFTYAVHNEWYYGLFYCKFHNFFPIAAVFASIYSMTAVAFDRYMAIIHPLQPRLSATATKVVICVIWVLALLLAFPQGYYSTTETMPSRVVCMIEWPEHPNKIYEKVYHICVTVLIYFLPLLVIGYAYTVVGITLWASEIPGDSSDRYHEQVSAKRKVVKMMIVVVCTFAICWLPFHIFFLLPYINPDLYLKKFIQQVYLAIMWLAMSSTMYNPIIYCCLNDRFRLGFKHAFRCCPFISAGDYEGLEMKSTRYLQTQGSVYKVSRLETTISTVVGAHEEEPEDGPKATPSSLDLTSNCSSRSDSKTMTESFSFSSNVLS

Structure (SMILES)	IC50 [nM]
CS(=O)(=O)Nc1ccccc1N1CCN(C(=O)[C@H](COCc2ccc(Cl)c(Cl)c2)NCc2ccccc2)CC1	4.8
CS(=O)(=O)N(CC1CCN(C(=O)[C@H](COCc2ccc(Cl)c(Cl)c2)NCc2ccccc2)CC1)c1ccccc1	547
O=C([C@H](COCc1ccc(Cl)c(Cl)c1)NCc1ccccc1)N1CCC2(CCc3ccccc32)CC1	602
Cc1ccccc1C1CCN(C(=O)[C@H](COCc2ccc(Cl)c(Cl)c2)NCc2ccccc2)CC1	330
CN(c1ccccc1C1CCN(C(=O)[C@H](COCc2ccc(Cl)c(Cl)c2)NCc2ccccc2)CC1)S(C)(=O)=O	61
CS(=O)(=O)Nc1ccccc1C1CCN(C(=O)[C@H](COCc2ccc(Cl)c(Cl)c2)NCc2ccccc2)CC1	17
COc1ccccc1C1CCN(C(=O)[C@H](COCc2ccc(Cl)c(Cl)c2)NCc2ccccc2)CC1	263
Cc1ccccc1N1CCN(C(=O)[C@H](COCc2ccc(Cl)c(Cl)c2)NCc2ccccc2)CC1	558
CS(=O)(=O)N1CC2(CCN(C(=O)[C@H](COCc3ccc(Cl)c(Cl)c3)NCc3ccccc3)CC2)c2ccccc21	1
COc1ccccc1N1CCN(C(=O)[C@H](COCc2ccc(Cl)c(Cl)c2)NCc2ccccc2)CC1	13
CS(=O)(=O)NCC1(c2ccccc2)CCN(C(=O)[C@H](COCc2ccc(Cl)c(Cl)c2)NCc2ccccc2)CC1	382
CS(=O)(=O)N1CCC2(CCN(C(=O)[C@H](COCc3ccc(Cl)c(Cl)c3)NCc3ccccc3)CC2)C1	2500
